This is an account of results in patent US9700047B2, “Macrocyclic picolinamides as fungicides” (Dow AgroSciences LLC, priority 2014, dated 2017).

Where two headings read alike, the source gives them in different places. Where only a bound is given, the exact number is not on record here.

The experiment has as its system Puccinia triticina; Synonym: Puccinia recondita f sp. tritici. Description: Wheat brown rust (PUCCRT) disease control on wheat seedlings. The class given is in vivo. The settings on record: for pest or weed control at 100 ppm: High Volume activity at 100 ppm; for pest or weed control at 121.5 g/ha: Low Volume activity at 121.5 g/H. The protocol: All fungicides were evaluated using the aforementioned method for their activity vs. all target diseases, unless stated otherwise. Wheat leaf blotch and brown rust activity were also evaluated using track spray applications, in which case the fungicides were formulated as EC formulations, containing 0.1% Trycol 5941 in the spray solutions. Wheat plants (variety Yuma) were grown from seed in a greenhouse in 50% mineral soil/50% soil-less Metro mix until the first leaf was fully emerged, with 7-10 seedlings per pot. These plants were inoculated with an aqueous spore suspension of Puccinia triticina either prior to or after fungicide treatments. […] The plants were then transferred to a greenhouse set at 24° C. for disease to develop. Fungicide formulation, application and disease assessment followed the procedures as described in the Example A.

Setting [1] is: 24 h, 1 Day Protectant, read-out: PUCCRT 1DP % Control rating.
[2] abbreviates: 72 h, 3 Day Curative, read-out: PUCCRT 3DC % Control rating.

For `CCCC[C@@H]1[C@@H](Cc2ccccc2)CCC[C@H](NC(=O)c2nccc(OC)c2OC(C)=O)C(=O)O[C@H]1C` [Compound 1, 2-(((3S,7R,8R,9S)-7-benzyl-8-butyl-9-methyl-2-oxooxonan-3-yl)carbamoyl)-4-methoxypyridin-3-yl acetate], under setting [1], the pest or weed control at 100 ppm is more than 70% and the pest or weed control at 121.5 g/ha was more than 70%. Under setting [2], the pest or weed control at 100 ppm is more than 70% and the pest or weed control at 121.5 g/ha was less than 70%.
For the compound `CCCC[C@@H]1[C@@H](Cc2ccccc2)CCC[C@H](NC(=O)c2nccc(OC)c2OCOC(C)=O)C(=O)O[C@H]1C` [Compound 2, ((2-(((3S,7R,8R,9S)-7-benzyl-8-butyl-9-methyl-2-oxooxonan-3-yl)carbamoyl)-4-methoxypyridin-3-yl)oxy)methyl acetate], under setting [1], the pest or weed control at 100 ppm was more than 70% and the pest or weed control at 121.5 g/ha was more than 70%. Further, under setting [2], the pest or weed control at 100 ppm is more than 70% and the pest or weed control at 121.5 g/ha was less than 70%.
In the case of `COc1ccnc(C(=O)N[C@H]2CCC[C@H](CCC(C)C)[C@@H](Cc3ccccc3)[C@H](C)OC2=O)c1OC(C)=O` [Compound 4], the pest or weed control at 121.5 g/ha reads like this: under setting [1], more than 70%; under setting [2], less than 70%.
On the same counts, the results for `COc1ccnc(C(=O)N[C@H]2CCC[C@H](Cc3ccccc3)[C@@H](Cc3ccccc3)[C@H](C)OC2=O)c1OC(C)=O` [Compound 5] are more than 70% and more than 70%.
On the same counts, the results for `COc1ccnc(C(=O)N[C@H]2CCC[C@H](Cc3ccccc3)[C@@H](Cc3ccccc3)[C@H](C)OC2=O)c1OCOC(C)=O` [Compound 6] are more than 70% and more than 70%.
On the same counts, the results for `COc1ccnc(C(=O)N[C@H]2CCC[C@H](Cc3ccccc3)[C@@H](Cc3ccccc3)[C@H](C)OC2=O)c1OCOC(=O)C(C)C` [Compound 7, ((2-(((3S,7R,8R,9S)-7,8-dibenzyl-9-methyl-2-oxooxonan-3-yl)carbamoyl)-4-methoxypyridin-3-yl)oxy)methyl isobutyrate] are more than 70% and more than 70%.
In the case of `CCOCC(=O)OCOc1c(OC)ccnc1C(=O)N[C@H]1CCC[C@H](Cc2ccccc2)[C@@H](Cc2ccccc2)[C@H](C)OC1=O` [Compound 8, ((2-(((3S,7R,8R,9S)-7,8-dibenzyl-9-methyl-2-oxooxonan-3-yl)carbamoyl)-4-methoxypyridin-3-yl)oxy)methyl 2-ethoxyacetate], the pest or weed control at 121.5 g/ha by setting is: under setting [1], more than 70%; under setting [2], less than 70%.
On the same counts, the results for `COc1ccnc(C(=O)N[C@H]2CCC[C@H](Cc3ccccc3)[C@@H](C3CCCC3)[C@H](C)OC2=O)c1OC(C)=O` [Compound 9] are more than 70% and less than 70%.
On the same counts, the results for `COc1ccnc(C(=O)N[C@H]2CCC[C@H](Cc3ccccc3)[C@@H](C3CCCC3)[C@H](C)OC2=O)c1OCOC(C)=O` [Compound 10] are more than 70% and more than 70%.
On the same counts, the results for `COc1ccnc(C(=O)N[C@H]2CCC[C@H](Cc3ccc(Cl)cc3)[C@@H](CC(C)C)[C@H](C)OC2=O)c1OCOC(C)=O` [Compound 12] are more than 70% and less than 70%.
Consider `COc1ccnc(C(=O)N[C@H]2CCC[C@H](Cc3ccc(Cl)cc3)[C@@H](CC(C)C)[C@H](C)OC2=O)c1OC(C)=O` [Compound 13], for which the pest or weed control at 121.5 g/ha reads like this: under setting [1], more than 70%; under setting [2], less than 70%.
On the same counts, the results for `COc1ccnc(C(=O)N[C@H]2CCC[C@H](Cc3ccccc3)[C@@H](CC(C)C)[C@H](C)OC2=O)c1OCOC(C)=O` [Compound 14] are more than 70% and less than 70%.
On the same counts, the results for `COc1ccnc(C(=O)N[C@H]2CCC[C@H](Cc3ccccc3)[C@@H](CCc3ccccc3)[C@H](C)OC2=O)c1OCOC(C)=O` [Compound 15] are more than 70% and less than 70%.
